Experimental data from patent US7109197B2, “N-phenyl-4-(4-pyridyl)-2-pyrimidineamine derivatives” (Syngenta Crop Protection, Inc., priority 2000, dated 2006).
Where two headings read alike, the source gives them in different places.

How the values were obtained:
Erysiphe graminis = experiment: Assay B-6: Effect against Erysiphe graminis on barley (powdery mildew); residual protective / systemic activity; assay type: in vivo; details: 0.02% active substance spray (residual) or 0.002% soil (systemic), variant not stated
Experimental: Assay B-6: Effect Against Erysiphe graminis on Barley (Powdery Mildew on Barley) a) Residual Protective Activity […] The infected plants are placed in a greenhouse at 22°. 12 days after infection, the fungal attack is evaluated. b) Systemic Activity […] […] 48 hours later, the plants are dusted with conidia of the fungus. The infected plants are placed in a greenhouse at 22° C. 12 days after infection, the disease incidence is evaluated.

Botrytis cinerea [1] = experiment: Assay B-8: Effect against Botrytis cinerea/tomato (Botrytis on tomatoes); assay type: in vivo; details: Botrytis cinerea on tomato cv. Roter Gnom; 0.02% active substance, spray
Experimental: Assay B-8: Effect Against Botrytis cinerea/Tomato (Botrytis on Tomatoes) 4 week old tomato plants cv. Roter Gnom are treated with the formulated testcompound 0.02% active substance) in a spray chamber. Two days after application tomato plants are inoculated by spraying a spore suspension (1×10^5 conidia/ml) on the test plants. After an incubation period of 4 days at 20° C. and 95% r. h. in a greenhouse the disease incidence is assessed.

Pyricularia oryzae = assay type: in vivo; details: Pyricularia oryzae on rice cv. Sasanishiki; 0.02% active substance, spray
Fusarium culmorum = assay type: in vivo
Septoria nodorum = experiment: Assay B-12: Effect against Septoria nodorum/wheat (Septoria leaf spot on wheat); assay type: in vivo; details: Septoria nodorum on wheat cv. Arina, 0.02% active substance, spray; for pest or weed control at 0.02 % strength: Parastagonospora nodorum, 264 h, read-out: B12 activity
[2] = tested on: Pyrenophora teres (Helminthosporium); experiment: Assay B-10: Effect against Pyrenophora teres (Helminthosporium)/barley (net blotch on barley); assay type: in vivo; details: Pyrenophora teres on barley cv. Regina, 0.02% active substance, spray; for pest or weed control at 0.02 % strength: 96 h, read-out: B10 activity
How it was run: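 One-week-old barley cv. Regina sprayed with formulated compound at 0.02% active substance, then inoculated 2 days later with 3×10^4 conidia/ml. Held 2 days at 20° C/95% r.h., then 2 days at 20° C/60% r.h.; disease incidence scored 4 days after inoculation.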

Venturia inaegualis = experiment: Assay B-5: Residual protective activity against Venturia inaegualis on apples (scab on apple); assay type: in vivo; details: Venturia inaegualis on apple seedlings cv. McIntosh; 0.02% active substance, spray
Experimental: Assay B-5: Residual Protective Activity Against Venturia inaegualis on Apples (Scab on Apple) 4 week old apple seedlings cv. McIntosh are treated with the formulated testcompound (0.02% active substance) in a spray chamber. One day after application apple plants are inoculated by spraying a spore suspension (4×10^5 conidia/ml) on the test plants. After an incubation period of 4 days at 21° C. and 95% r. h. the plants are placed for 4 days at 21° C. and 60% r. h. in a greenhouse. After another 4 day incubation period at 21° C. and 95% r. h. the disease incidence is assessed.

Botrytis cinerea [3] = experiment: Assay B-7: Botrytis cinerea/grape (Botrytis on grapes); assay type: in vivo; details: Botrytis cinerea on grape seedlings cv. Gutedel; 0.02% active substance, spray
Experimental: Assay B-7: Botrytis cinerea/Grape (Botrytis on Grapes) 5 week old grape seedlings cv. Gutedel are treated with the formulated testcompound (0.02% active substance) in a spray chamber. Two days after application grape plants are inoculated by spraying a spore suspension (1×10^6 conidia/ml) on the test plants. After an incubation period of 4 days at 21° C. and 95% r. h. in a greenhouse the disease incidence is assessed.

[4] = Fusarium culmorum, wheat seeds cv. Orestis in pouch, 0.002% active substance

CCC(COC)Nc1cc(-c2ccnc(Nc3cccc(Cl)c3)n2)ccn1 (stereo not shown) [Compound 4]
B6 activity (Erysiphe graminis): + (the activity observed in the corresponding test system is 70% or more)
B8 activity (Botrytis cinerea [1]): + (the activity observed in the corresponding test system is 70% or more)
B9 activity (Pyricularia oryzae): + (the activity observed in the corresponding test system is 70% or more)
B11 activity (Fusarium culmorum; in vivo): + (key: +: the activity observed in the corresponding test system is 70% or more)
B12 activity (Septoria nodorum): + (the activity observed in the corresponding test system is 70% or more)

COCC(C)Nc1cc(-c2ccnc(Nc3cccc(OC(F)(F)C(F)F)c3)n2)ccn1 (stereo not shown) [Compound 5]
B10 activity [2]: + (the activity observed in the corresponding test system is 70% or more)
B11 activity (Fusarium culmorum; in vivo): + (key: +: the activity observed in the corresponding test system is 70% or more)
B12 activity (Septoria nodorum): + (the activity observed in the corresponding test system is 70% or more)

CCC(CO)Nc1cc(-c2ccnc(Nc3cccc(Cl)c3)n2)ccn1 (stereo not shown) [Compound 31]
B5 activity (Venturia inaegualis): + (the activity observed in the corresponding test system is 70% or more)
B7 activity (Botrytis cinerea [3]): + (the activity observed in the corresponding test system is 70% or more)
B8 activity (Botrytis cinerea [1]): + (the activity observed in the corresponding test system is 70% or more)
B10 activity [2]: + (the activity observed in the corresponding test system is 70% or more)
B11 activity (Fusarium culmorum; in vivo): + (key: +: the activity observed in the corresponding test system is 70% or more)

COCCNc1cc(-c2ccnc(Nc3cccc(Cl)c3)n2)ccn1 [Compound 34]
B7 activity (Botrytis cinerea [3]): + (the activity observed in the corresponding test system is 70% or more)
B8 activity (Botrytis cinerea [1]): + (the activity observed in the corresponding test system is 70% or more)
B10 activity [2]: + (the activity observed in the corresponding test system is 70% or more)
B11 activity (Fusarium culmorum; in vivo): + (key: +: the activity observed in the corresponding test system is 70% or more)
B12 activity (Septoria nodorum): + (the activity observed in the corresponding test system is 70% or more)

CC(=O)OCC(C)Nc1cc(-c2ccnc(Nc3cccc(Cl)c3)n2)ccn1 (stereo not shown) [Compound 50]
B5 activity (Venturia inaegualis): + (the activity observed in the corresponding test system is 70% or more)
B6 activity (Erysiphe graminis): + (the activity observed in the corresponding test system is 70% or more)
B7 activity (Botrytis cinerea [3]): + (the activity observed in the corresponding test system is 70% or more)
B8 activity (Botrytis cinerea [1]): + (the activity observed in the corresponding test system is 70% or more)
B9 activity (Pyricularia oryzae): + (the activity observed in the corresponding test system is 70% or more)
B10 activity [2]: + (the activity observed in the corresponding test system is 70% or more)
B12 activity (Septoria nodorum): + (the activity observed in the corresponding test system is 70% or more)

Nc1cc(-c2ccnc(Nc3cccc(Cl)c3)n2)ccn1 [Compound 58]
B5 activity (Venturia inaegualis): + (the activity observed in the corresponding test system is 70% or more)
B6 activity (Erysiphe graminis): + (the activity observed in the corresponding test system is 70% or more)
B7 activity (Botrytis cinerea [3]): + (the activity observed in the corresponding test system is 70% or more)
B8 activity (Botrytis cinerea [1]): + (the activity observed in the corresponding test system is 70% or more)
B9 activity (Pyricularia oryzae): + (the activity observed in the corresponding test system is 70% or more)
pest or weed control at 0.02 % strength [2]: > 70%
pest or weed control at 0.02 % strength (Septoria nodorum): > 70%
melting point: 214 to 215 °C

CC(=O)Nc1cc(-c2ccnc(Nc3cccc(Cl)c3)n2)ccn1 [Compound 61]
B11 activity (Fusarium culmorum; [4]): + (the activity observed in the corresponding test system is 70% or more)
melting point: 245 to 247 °C

COC(OC)C(C)Nc1cc(-c2ccnc(Nc3cccc(Cl)c3)n2)ccn1 (stereo not shown) [Compound 65]
B5 activity (Venturia inaegualis): + (the activity observed in the corresponding test system is 70% or more)
B6 activity (Erysiphe graminis): + (the activity observed in the corresponding test system is 70% or more)
B7 activity (Botrytis cinerea [3]): + (the activity observed in the corresponding test system is 70% or more)
B8 activity (Botrytis cinerea [1]): + (the activity observed in the corresponding test system is 70% or more)
B9 activity (Pyricularia oryzae): + (the activity observed in the corresponding test system is 70% or more)
B10 activity [2]: + (the activity observed in the corresponding test system is 70% or more)
B12 activity (Septoria nodorum): + (the activity observed in the corresponding test system is 70% or more)

CC(=Nc1cc(-c2ccnc(Nc3cccc(Cl)c3)n2)ccn1)N(C)C [Compound 66]
B5 activity (Venturia inaegualis): + (the activity observed in the corresponding test system is 70% or more)
B7 activity (Botrytis cinerea [3]): + (the activity observed in the corresponding test system is 70% or more)
B8 activity (Botrytis cinerea [1]): + (the activity observed in the corresponding test system is 70% or more)
B9 activity (Pyricularia oryzae): + (the activity observed in the corresponding test system is 70% or more)
B10 activity [2]: + (the activity observed in the corresponding test system is 70% or more)
B11 activity (Fusarium culmorum; in vivo): + (key: +: the activity observed in the corresponding test system is 70% or more)
B12 activity (Septoria nodorum): + (the activity observed in the corresponding test system is 70% or more)

CC(C)Nc1cc(-c2ccnc(Nc3cccc(Cl)c3)n2)ccn1 [Compound 68]
B8 activity (Botrytis cinerea [1]): + (the activity observed in the corresponding test system is 70% or more)
pest or weed control at 0.02 % strength [2]: > 70%
B11 activity (Fusarium culmorum; [4]): + (the activity observed in the corresponding test system is 70% or more)
pest or weed control at 0.02 % strength (Septoria nodorum): > 70%
melting point: 184 to 185 °C

Clc1cccc(Nc2nccc(-c3ccnc(NC4CCOCC4)c3)n2)c1 [Compound 83]
B8 activity (Botrytis cinerea [1]): + (the activity observed in the corresponding test system is 70% or more)
B10 activity [2]: + (the activity observed in the corresponding test system is 70% or more)
B11 activity (Fusarium culmorum; in vivo): + (key: +: the activity observed in the corresponding test system is 70% or more)
B12 activity (Septoria nodorum): + (the activity observed in the corresponding test system is 70% or more)
